This is an account of results in US6964780B1, “Controlled-release pharmaceutical formulations” (Pfizer Inc., priority 1998, dated 2005).

The data set is described as follows: solubility of sildenafil citrate as a function of pH. The data set is classed as physicochemical. To be noted: at pH values greater than 6. The text has this: Matrix formulations according to the present invention may contain a buffering agent. This is particularly useful when the formulation contains sildenafil citrate. A buffering agent of particular interest is aspartic acid. When it forms part of a matrix tablet, aspartic acid acts as a buffering agent to maintain a low pH at the surface of the tablet. […] When present, aspartic acid will typically make up 15–30% by weight of the formulation.

Structures can show the parent of a compound that is named as a salt.

As to `CCCc1nn(C)c2c(=O)[nH]c(-c3cc(S(=O)(=O)N4CCN(C)CC4)ccc3OCC)nc12` [sildenafil citrate, Sildenafil citrate], the solubility result was “low solubility”.
